Square brackets hold non-standard residues; d marks the D form. Peptide text beside a SMILES is read from it. Cha = N[C@@H](CC1CCCCC1)C(=O)O
Columns and labels:
[1] = molecular target: T1, E. coli SC (^EcSC, beta ring, DnaN) (Escherichia coli, UniProt P0A988); assay: ITC, peptide interaction with E. coli sliding clamp; assay type: binding
T1 construct: inferred from the pET15b vector and the Ni-NTA/imidazole purification; made in house; host or cells: E. coli BL21 (DE3) pLys

[2] = test system: E. coli 70S ribosome (^Ec70S); assay: ITC, peptide interaction with E. coli 70S ribosome; assay type: binding
[3] = ITC 30° C. (303.15 K), Table 2A, ^EcSC, Ni = no specific interaction
[4] = ITC 30° C., Table 2A, ^EcSC, Ni = no specific interaction
[5] = ITC 25° C., E. coli ribosome (70S)
[6] = ITC 30° C., Table 2B, ^Ec70S, Ni = no specific interaction
[7] = ITC 30° C., Table 2B, ^Ec70S, Ni = no specific interaction, FITC peptides (*) values not well defined
[8] = ITC, 30° C., E. coli ribosome, FITC-Onc112 series
[9] = ITC 25° C., E. coli SC (beta ring)

T1 sequence (P0A988 whole entry): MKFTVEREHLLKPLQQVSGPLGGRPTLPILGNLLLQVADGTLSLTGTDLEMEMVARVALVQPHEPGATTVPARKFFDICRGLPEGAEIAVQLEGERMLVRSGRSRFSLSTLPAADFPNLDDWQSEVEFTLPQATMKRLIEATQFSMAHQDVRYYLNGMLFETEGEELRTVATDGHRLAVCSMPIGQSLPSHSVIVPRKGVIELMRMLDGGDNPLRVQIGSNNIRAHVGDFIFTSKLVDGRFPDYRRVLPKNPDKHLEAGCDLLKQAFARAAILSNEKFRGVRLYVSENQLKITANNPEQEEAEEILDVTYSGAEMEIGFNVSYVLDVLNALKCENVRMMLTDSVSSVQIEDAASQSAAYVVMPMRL

| Structure (SMILES) | interaction with ^EcSC, in words ([1]; ITC 30° C.) | ΔH (kcal/mole) [1, 3] | Kd (nM) [1, 4] | ΔG (kcal/mole) [1, 4] | −TΔS (kcal/mole) [1, 4] | Kd [2, 6] [nM] | ΔG [2, 7] [kcal/mol] | ΔH [2, 7] [kcal/mol] | −TΔS [2, 7] [kcal/mol] | ΔH [1, 3] [kcal/mol] | ΔG [1, 4] [kcal/mol] | −TΔS [1, 4] [kcal/mol] | ΔG [1, 9] [kcal/mol] | ΔH [1, 9] [kcal/mol] | interaction with ^Ec70S, in words ([2]; ITC 30° C.) | also measured |
| --- | --- | --- | --- | --- | --- | --- | --- | --- | --- | --- | --- | --- | --- | --- | --- | --- |
| CC[C@H](C)[C@H](NC(=O)[C@@H](CCCNC(=N)N)NC(=O)[C@H](CCCNC(=N)N)NC(=O)[C@@H]1CCCN1C(=O)[C@@H]1CCCN1C(=O)[C@H](CCCNC(=N)N)NC(=O)[C@@H]1CCCN1C(=O)[C@H](CCCNC(=N)N)NC(=O)[C@@H]1CCCN1C(=O)[C@H](CC(C)C)NC(=O)[C@H](Cc1ccc(O)cc1)NC(=O)[C@@H]1CCCN1C(=O)[C@@H]1CCCN1C(=O)[C@H](CCCCN)NC(=O)[C@H](CC(=O)O)NC(=O)[C@@H](N)C(C)C)C(=O)N[C@@H](Cc1ccc(O)cc1)C(=O)N[C@@H](CC(N)=O)C(=O)N[C@H](CCCNC(=N)N)C(N)=O [Peptide P28, reference compound] (H-VDKPPYLPRPRPPR[dR]IYN[dR]-NH2; N-terminus assumed) | do not interact | Ni | Ni | Ni | Ni | 84 | -9.82 | -23.9 | 14.0 |  |  |  |  |  |  | Kd [2, 5]: 241 nM; ΔG (kcal/mol) [2, 5]: −9.2 (±0.1) kcal/mol; ΔH (kcal/mol) [2, 5]: −16.2 (±0.3) kcal/mol; affinity for ^Ec70S relative to Py ([2]; ITC 30° C.): fivefold lower; Kd ([2]; ITC 30° C., Table 2B, ^Ec70S, Ni = no specific interaction, listed as Onc112): ~84 nM; Kd [2, 8]: 241 nM; ΔG (kcal/mol) [2, 8]: −9.2 (±0.1) kcal/mol; ΔH (kcal/mol) [2, 8]: −16.2 (±0.3) kcal/mol |
| CC[C@H](C)[C@H](NC(=O)[C@@H]1CCCN1C(=O)[C@H](CCCNC(=N)N)NC(=O)[C@@H]1CCCN1C(=O)[C@@H]1CCCN1C(=O)[C@@H](NC(=O)[C@@H]1CCCN1C(=O)[C@H](CCCNC(=N)N)NC(=O)[C@@H]1CCCN1C(=O)[C@H](CC(C)C)NC(=O)[C@H](Cc1ccc(O)cc1)NC(=O)[C@H](CO)NC(=O)CNC(=O)[C@H](CCCCN)NC(=O)[C@H](CC(=O)O)NC(=O)[C@@H](NC(=O)[C@H](CCCCN)NC(=O)c1ccc2c(c1)C(=O)OC21c2ccc(O)cc2Oc2cc(O)ccc21)C(C)C)[C@@H](C)O)C(=O)N[C@@H](Cc1ccc(O)cc1)C(=O)N[C@@H](CC(N)=O)C(=O)N[C@@H](CCCNC(=N)N)C(=O)N[C@@H](CC(N)=O)C(=O)NCC(=O)N1CCC[C@H]1C(=O)N[C@@H](CCCNC(=N)N)C(=O)N[C@@H](CCC(N)=O)C(=O)N[C@@H](CC1CCCCC1)C(=O)N[C@@H](CC(=O)O)C(=O)N[C@@H](CC(C)C)C(=O)N[C@@H](Cc1ccccc1)C(=O)O [Peptide P150] | similarly interacts |  |  |  |  |  | -6.27 | -13 | 6.7 | -17.2 | -8.99 | 8.21 |  |  |  | Kd ([2]; ITC 30° C., Table 2B, ^Ec70S, FITC peptides (*), values not well defined, weak interaction): > 10000 nM |
| CC[C@H](C)[C@H](NC(=O)[C@@H](CCCNC(=N)N)NC(=O)[C@H](CCCNC(=N)N)NC(=O)[C@@H]1CCCN1C(=O)[C@@H]1CCCN1C(=O)[C@H](CCCNC(=N)N)NC(=O)[C@@H]1CCCN1C(=O)[C@H](CCCNC(=N)N)NC(=O)[C@@H]1CCCN1C(=O)[C@H](CC(C)C)NC(=O)[C@H](Cc1ccc(O)cc1)NC(=O)[C@@H]1CCCN1C(=O)[C@@H]1CCCN1C(=O)[C@H](CCCCN)NC(=O)[C@H](CC(=O)O)NC(=O)[C@@H](N)C(C)C)C(=O)N[C@@H](Cc1ccc(O)cc1)C(=O)N[C@@H](CC(N)=O)C(=O)N[C@H](CCCNC(=N)N)C(=O)N[C@@H](CC(N)=O)C(=O)NCC(=O)N1CCC[C@H]1C(=O)N[C@@H](CCCNC(=N)N)C(=O)N[C@@H](CC1CCCCC1)C(=O)N[C@@H](Cc1ccccc1)C(=O)N[C@@H](CCC(N)=O)C(=O)N[C@@H](CC(C)C)C(=O)N[C@@H](CC(=O)O)C(=O)O [Peptide P120] (H-VDKPPYLPRPRPPR[dR]IYN[dR]NGPR[Cha]FQLD-OH) | fail to interact | Ni | Ni | Ni | Ni | 101 | -9.85 | -13 | 3.12 |  |  |  |  |  |  |  |
| CC(=O)N[C@@H](CCC(N)=O)C(=O)N[C@@H](CC1CCCCC1)C(=O)N[C@@H](CC(=O)O)C(=O)N[C@@H](CC(C)C)C(=O)N[C@@H](Cc1ccccc1)C(=O)O [Peptide P7, Ac-QChaDLF-OH, reference compound] (Ac-Q[Cha]DLF-OH) |  |  |  |  |  |  |  |  |  | -13.7 | -9.00 | 4.71 | -9.2 | -15.4 | does not specifically bind | ΔH ([1]; ITC 30° C., E.coli SC, specificity comparison with PCNA): -12.05 kcal/mol; Kd ([1]; dissociation constant (Kd) for ^EcSC, at 30° C.): 400 nM; fold increase of affinity for ^EcSC compared to natural SC binding peptide (RQLVLGL) ([1]; versus RQLVLGL from E. coli DNA polymerase IV): 50 fold; Kd (nM) [2, 6]: Ni; ΔG (kcal/mole) [2, 7]: Ni; ΔH (kcal/mole) [2, 7]: Ni; −TΔS (kcal/mole) [2, 7]: Ni |
| CC[C@H](C)[C@H](NC(=O)[C@@H](CCCNC(=N)N)NC(=O)[C@H](CCCNC(=N)N)NC(=O)[C@@H]1CCCN1C(=O)[C@@H]1CCCN1C(=O)[C@H](CCCNC(=N)N)NC(=O)[C@@H]1CCCN1C(=O)[C@H](CCCNC(=N)N)NC(=O)[C@@H]1CCCN1C(=O)[C@H](CC(C)C)NC(=O)[C@H](Cc1ccc(O)cc1)NC(=O)[C@@H]1CCCN1C(=O)[C@@H]1CCCN1C(=O)[C@H](CCCCN)NC(=O)[C@H](CC(=O)O)NC(=O)[C@@H](N)C(C)C)C(=O)N[C@@H](Cc1ccc(O)cc1)C(=O)N[C@@H](CC(N)=O)C(=O)N[C@H](CCCNC(=N)N)C(=O)N[C@@H](CC(N)=O)C(=O)NCC(=O)N1CCC[C@H]1C(=O)N[C@@H](CCCNC(=N)N)C(=O)N[C@@H](CCC(N)=O)C(=O)N[C@@H](CC1CCCCC1)C(=O)N[C@@H](CC(=O)O)C(=O)N[C@@H](CC(C)C)C(=O)N[C@@H](Cc1ccccc1)C(=O)O [Peptide P30] (H-VDKPPYLPRPRPPR[dR]IYN[dR]NGPRQ[Cha]DLF-OH) | as efficiently as P7 alone |  |  |  |  | 70.4 | -9.92 | -25.6 | 15.7 | -13.5 | -9.28 | 4.2 | -9.2 | -14.6 | efficiently interact | affinity for the ribosome relative to affinity for SC ([2]; from Table 2, ^Ec70S versus ^EcSC): three times higher affinity |

— patent publication US12098217B2, “Fusion peptides as antimicrobial agents” (CENTRE NATIONAL DE LA RECHERCHE SCIENTIFIQUE, priority 2019, dated 2024)
